Earlier results as cited in US20220235034A1, “SELECTIVE HISTAMINE H3 RECEPTOR ANTAGONISTS FOR TREATING AUTISM SPECTRUM DISORDER” (RICHTER GEDEON NYRT., priority 2019, published 2022).

Columns and labels:
histamine H3 receptor [1] = molecular target: T1, histamine H3 receptor (Homo sapiens, UniProt Q9Y5N1); settings: according to WO 2014/136075A1; cited from earlier work
histamine H3 receptor [2] = molecular target: T1, histamine H3 receptor; settings: cited from earlier work
histamine H3 receptor [3] = molecular target: T2, histamine H3 receptor (Rattus norvegicus, UniProt Q9QYN8); settings: in vivo in rats; cited from earlier work
T2 construct: from tissue; host or cells: living rat (in vivo)

[4] = tested on: prenatally VPA-exposed mice; settings: cited from earlier work
[5] = molecular target: T3, human monoamine oxidase A (Homo sapiens, UniProt P21397); settings: cited from earlier work
T3 sequence (P21397 1-527): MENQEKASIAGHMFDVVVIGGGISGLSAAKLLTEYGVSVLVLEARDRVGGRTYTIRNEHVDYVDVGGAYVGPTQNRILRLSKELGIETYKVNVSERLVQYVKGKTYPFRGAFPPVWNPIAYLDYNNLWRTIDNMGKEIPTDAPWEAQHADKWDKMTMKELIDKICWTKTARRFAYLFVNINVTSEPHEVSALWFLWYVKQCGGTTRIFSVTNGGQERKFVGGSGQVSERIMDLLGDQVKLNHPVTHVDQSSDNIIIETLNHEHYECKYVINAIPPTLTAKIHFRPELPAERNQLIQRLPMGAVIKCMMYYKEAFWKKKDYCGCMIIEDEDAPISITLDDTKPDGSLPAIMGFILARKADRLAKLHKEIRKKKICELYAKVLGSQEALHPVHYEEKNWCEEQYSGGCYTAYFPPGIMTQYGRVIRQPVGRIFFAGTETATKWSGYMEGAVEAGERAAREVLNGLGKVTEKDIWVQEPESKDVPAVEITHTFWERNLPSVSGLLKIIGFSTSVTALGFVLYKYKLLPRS

[6] = molecular target: T4, human monoamine oxidase B (Homo sapiens, UniProt P27338); settings: cited from earlier work
T4 sequence (P27338 1-520): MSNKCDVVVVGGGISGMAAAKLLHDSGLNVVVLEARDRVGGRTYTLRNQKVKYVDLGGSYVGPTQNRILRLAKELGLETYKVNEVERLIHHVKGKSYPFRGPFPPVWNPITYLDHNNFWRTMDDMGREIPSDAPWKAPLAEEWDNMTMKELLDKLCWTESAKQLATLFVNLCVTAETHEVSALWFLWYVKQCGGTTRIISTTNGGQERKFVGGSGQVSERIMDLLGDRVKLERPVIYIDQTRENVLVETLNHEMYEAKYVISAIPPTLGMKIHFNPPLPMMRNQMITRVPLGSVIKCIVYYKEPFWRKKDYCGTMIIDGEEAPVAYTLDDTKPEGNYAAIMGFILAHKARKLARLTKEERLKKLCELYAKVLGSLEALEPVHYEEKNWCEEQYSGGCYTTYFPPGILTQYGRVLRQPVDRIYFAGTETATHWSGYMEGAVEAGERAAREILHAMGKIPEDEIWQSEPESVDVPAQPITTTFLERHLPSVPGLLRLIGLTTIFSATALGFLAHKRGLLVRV

rat monoamine oxidase A = molecular target: T5, rat monoamine oxidase A (Rattus norvegicus, UniProt P21396); settings: cited from earlier work
T5 sequence (P21396 1-526): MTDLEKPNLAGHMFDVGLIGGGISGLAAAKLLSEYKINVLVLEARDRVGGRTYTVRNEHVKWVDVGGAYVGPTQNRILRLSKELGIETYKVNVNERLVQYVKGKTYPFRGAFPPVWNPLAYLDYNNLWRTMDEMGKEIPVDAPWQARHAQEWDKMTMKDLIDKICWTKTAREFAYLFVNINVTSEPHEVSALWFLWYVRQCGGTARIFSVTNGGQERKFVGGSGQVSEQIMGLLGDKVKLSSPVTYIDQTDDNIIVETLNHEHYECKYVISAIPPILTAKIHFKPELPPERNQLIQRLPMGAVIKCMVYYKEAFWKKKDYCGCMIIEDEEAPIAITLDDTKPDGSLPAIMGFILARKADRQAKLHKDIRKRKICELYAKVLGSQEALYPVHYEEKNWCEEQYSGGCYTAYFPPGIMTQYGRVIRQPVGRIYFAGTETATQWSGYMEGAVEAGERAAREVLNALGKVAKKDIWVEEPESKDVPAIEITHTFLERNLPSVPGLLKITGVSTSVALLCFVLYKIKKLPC

rat monoamine oxidase B = molecular target: T6, rat monoamine oxidase B (Rattus norvegicus, UniProt P19643); settings: cited from earlier work
T6 sequence (P19643 1-520): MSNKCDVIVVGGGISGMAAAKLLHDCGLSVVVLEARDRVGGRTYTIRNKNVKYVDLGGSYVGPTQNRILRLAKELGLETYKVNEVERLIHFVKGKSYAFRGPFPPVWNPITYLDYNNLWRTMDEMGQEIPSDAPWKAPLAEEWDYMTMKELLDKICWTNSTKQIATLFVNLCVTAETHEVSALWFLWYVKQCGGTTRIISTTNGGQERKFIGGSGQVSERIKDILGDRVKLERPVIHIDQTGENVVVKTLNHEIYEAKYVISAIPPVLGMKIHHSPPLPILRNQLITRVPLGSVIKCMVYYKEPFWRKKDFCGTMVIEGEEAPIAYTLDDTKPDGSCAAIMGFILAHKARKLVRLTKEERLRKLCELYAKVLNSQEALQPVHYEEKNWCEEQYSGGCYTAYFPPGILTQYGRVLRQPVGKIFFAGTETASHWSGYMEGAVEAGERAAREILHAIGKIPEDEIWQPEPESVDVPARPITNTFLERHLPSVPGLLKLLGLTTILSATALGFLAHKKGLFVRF

[7] = 3 mg/kg intraperitoneally; cited from earlier work
prenatal VPA model = settings: in vivo; cited from earlier work
ASD subjects = settings: humans; cited from earlier work
[8] = 3 mg/kg intraperitoneally, prenatal valproate model in mice

T1 sequence (Q9Y5N1 whole entry, species assumed): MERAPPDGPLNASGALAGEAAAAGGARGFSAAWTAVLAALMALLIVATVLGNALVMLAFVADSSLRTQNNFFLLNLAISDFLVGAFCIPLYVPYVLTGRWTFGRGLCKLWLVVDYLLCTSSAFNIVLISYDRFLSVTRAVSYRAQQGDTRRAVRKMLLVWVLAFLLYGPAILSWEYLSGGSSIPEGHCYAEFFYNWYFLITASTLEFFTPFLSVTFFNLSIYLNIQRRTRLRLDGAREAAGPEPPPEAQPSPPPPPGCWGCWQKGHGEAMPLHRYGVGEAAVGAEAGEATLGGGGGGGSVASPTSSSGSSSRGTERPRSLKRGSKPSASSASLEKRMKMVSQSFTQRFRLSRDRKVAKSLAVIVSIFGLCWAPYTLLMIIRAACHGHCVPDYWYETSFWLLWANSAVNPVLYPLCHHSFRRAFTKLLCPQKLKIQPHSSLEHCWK
T2 sequence (Q9QYN8 whole entry): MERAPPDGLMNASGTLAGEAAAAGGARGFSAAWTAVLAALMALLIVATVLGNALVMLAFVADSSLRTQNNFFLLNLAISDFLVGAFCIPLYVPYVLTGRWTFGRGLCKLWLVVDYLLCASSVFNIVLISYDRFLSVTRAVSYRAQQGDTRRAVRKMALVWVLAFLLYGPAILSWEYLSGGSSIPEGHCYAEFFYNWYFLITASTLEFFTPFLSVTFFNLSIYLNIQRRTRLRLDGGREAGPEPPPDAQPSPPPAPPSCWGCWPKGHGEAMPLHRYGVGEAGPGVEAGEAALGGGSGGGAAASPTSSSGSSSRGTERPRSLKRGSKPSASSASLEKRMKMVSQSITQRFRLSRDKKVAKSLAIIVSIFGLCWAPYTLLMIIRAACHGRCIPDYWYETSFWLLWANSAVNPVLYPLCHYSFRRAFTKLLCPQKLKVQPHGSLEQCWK

## CC(=O)N1CCC(Oc2ccc(OCCCN3CCC[C@H]3C)cc2)CC1 [Compound of Formula 1, 1-[4-(4-{3-[(2R)-2-methylpyrrolidin-1-yl]-propoxy}-phenoxy)-piperidin-1-yl]-ethan-1-on]
Histamine H3 receptor [1]
  affinity for histamine H3 receptor: high affinity
  selectivity for histamine H3 receptor: highly selective
Histamine H3 receptor [2]
  functional behaviour in vitro: receptor antagonist/inverse agonist
Histamine H3 receptor [3]
  histamine H3 receptor antagonism in vivo: shows histamine H3 receptor antagonism in vivo

## O=C(c1ccc(OCCCc2cnc[nH]2)cc1)C1CC1 [ciproxifan]
[4]; [8]
  excessive repetitive behavior: improved
  social deficits: improved
[4]; prenatally VPA-exposed mice
  social novelty preference: did not have an effect
[5]
  inhibition of monoamine oxidase A, concentration range: micromolar concentration range
[6]; human and rat enzymes
  preference between monoamine oxidase A and B: slight preference for monoamine oxidase B
[6]; human
  inhibition of monoamine oxidase B, concentration range: micromolar concentration range
Rat monoamine oxidase A
  inhibition of monoamine oxidase A, concentration range: micromolar concentration range
Rat monoamine oxidase B
  inhibition of monoamine oxidase B, concentration range: micromolar concentration range
[7]
  plasma exposures: micromolar range

## CC[C@H](C)[C@@H]1NC(=O)[C@H](Cc2ccc(O)cc2)NC(=O)[C@@H](N)CSSC[C@@H](C(=O)N2CCC[C@H]2C(=O)N[C@@H](CC(C)C)C(=O)NCC(N)=O)NC(=O)[C@H](CC(N)=O)NC(=O)[C@H](CCC(N)=O)NC1=O [oxytocin]
Prenatal VPA model
  behavioral impairments in the prenatal VPA model: improve behavioral impairments
ASD subjects
  efficacy signals in ASD subjects: produced efficacy signals
